System: isolated MDSC-like cells
Assay: Whole-genome RNA microarray of isolated MDSC-like cells after dhS1P
Assay type: cell-based, athymic nude mice
Conditions: 24 hours dhS1P vs vehicle (BSA); fold-change cut-off 1.2, p-value cut-off 0.05
Method: To more closely evaluate the genetic consequences of the dhS1P-induced decrease in isolated MDSC-like cells and the increase in cells bearing the surface markers of B-cells, a RNA microarray analysis was conducted. MDSC-like cells were isolated from MDA-MB-231 tumor-bearing athymic nude mice, exposed for 24 hours to dhS1P or vehicle (BSA), followed by RNA extraction, and a whole-genome microarray was performed. As compared to vehicle-treated MDSC-like cells, dhS1P treatment of isolated MDSC-like cells altered the expression of a variety of genes.
Isolated MDSC-like cells were cultured for 24 hours in media containing BSA, or dhS1P ([…]), before collection and washing via centrifugation. […]
cDNA was purified according to standard procedures. cDNA was in vitro transcribed to synthesize cRNA using a MEGAscript kit (Ambion, Austin, Tex.). Samples were incubated with T7 10× reaction buffer, T7 Enzyme mix and Biotin-NTP mix at 37° C. for 14 hours. cRNA was purified according to instructions, and the yield was measured using a NanoDrop ND-1000 (NanoDrop Products, Wilmington, Del.). […] BeadChips were dried by centrifugation at 275×g for 4 minutes and subsequently scanned using a BeadArray Reader. […]

**Q.** Which “Number of significantly regulated genes” value does the source give for `CCCCCCCCCCCCCCC[C@@H](O)[C@@H](N)COP(=O)(O)O` [dhS1P, dihydrosphingosine-1-phosphate] here?
**A.** 319

— US20160206633A1, “dhS1P AND USE OF SAME AS AN ANTICANCER THERAPEUTIC AND IMMUNOMODULATOR” (Penn State Research Foundation, Inc., priority 2013, published 2016)
